Data on one compound can be found in US20130281409A1, “Myelin Sheath Fatty Acids that Resolve Neuroinflammation” (priority 2012, published 2013).

The test system of experiment [1] is EAE in PLP139-151-immunized SJL/J mice. Briefly: EAE, lipid administered prophylactically (co-immunization with PLP139-151). Format: in vivo, mouse. Conditions: 6 μg/injection; s.c. with PLP139-151 on day 0, i.p. on days 4 and 7. The procedure: Animal experiments were approved by, and performed in compliance with, the National Institute of Health guidelines of the Institutional Animal Care and Use Committee at Stanford University. For induction of EAE, 8- to 12-week-old female SJL/J mice (Jackson Laboratory) were immunized subcutaneously with 100 μg of PLP139-151 emulsified in CFA (Difco Laboratories). Three injections of PGPC (6 μg/mouse/injection) or vehicle (0.05% Tween-20 in PBS) were delivered on days 0, 4, and 7 after immunization with PLP139-151. On day 0, the lipid or vehicle was emulsified together with PLP139-151 in CFA and administered by subcutaneous injection. At subsequent time points, lipid or vehicle was injected intraperitoneally. EAE was assessed as previously described. To induce EAE in SJL/J mice (Jackson Mice), we immunized 8- to 12-week-old female animals subcutaneously with 100 μg of PLP139-151 emulsified in CFA (Difco Laboratories). Prophylactic administration of lipid: Three injections of PGPC or sphingomyelin (6 μg/mouse/injection) or vehicle (0.05% Tween-20 in PBS) were delivered on days 0, 4, and 7 after immunization with PLP139-151. […] Clinical disease was monitored daily using the following scoring system: 0, no disease; 1, limp tail; 2, hind limb weakness; 3, hind limb paralysis; 4, hind limb and forelimb paralysis; 5, death. […]

Experiment [2] concerns lymph node cells and splenocytes. Description: PLP139-151-induced cytokine secretion by cells from PGPC-treated EAE mice. Format: in vivo, mouse. As for the experimental part:
PLP-stimulated cells from PLP139-151-immunized mice administered PGPC prophylactically: SJL/J mice were co-injected with PGPC and PLP139-151 in CFA and sacrificed 48 days later. Lymph node cells and splenocytes were then harvested and re-stimulated in vitro (2.5×10^6 cells/ml) with 10 μg/ml of PLP139-151 or with media alone. PLP-stimulated cells from untreated PLP139-151-immunized mice: SJL/J mice were immunized with PLP139-151 in CFA and sacrificed 10 days later. Splenocytes were then harvested and re-stimulated in vitro (at 5×10^5 cells/ml) with 10 μg/ml of PLP139-151 in the presence of 30 μg/ml of POPS, PGPC, azPC ester, or azPC. Cytokine production by cells from the lymph nodes and spleens of PGPC co-immunized mice was measured after 66 hours of stimulation by using the BD OptEIA™ Mouse IFN-γ ELISA kit (BD Biosciences). Cytokine assays for the anti-CD3/anti-CD28 antibody-stimulated T cells and PLP139-151-stimulated splenocytes were performed on culture supernatants after 48 hours of stimulation using the BD OptEIA™ Mouse IL-6, IFN-γ, and TNF alpha ELISA kits (BD Biosciences) and the Mouse IL-17 DuoSet ELISA Development kit (R&D Systems).

Entries after “also recorded” stand apart in the source; their conditions may differ.

Regarding `CCCCCCCCCCCCCCCC(=O)OC[C@H](COP(=O)([O-])OCC[N+](C)(C)C)OC(=O)CCCC(=O)O` [PGPC, 1-Palmitoyl-2-Glutaroyl-sn-Glycero-3-Phosphocholine], in experiment [1], the “EAE severity (clinical score)” value is listed as “reduced the severity of EAE”. The “IFN-γ secretion upon PLP139-151 stimulation” value in experiment [2] (cells from PGPC-treated vs vehicle-treated EAE mice) is reported as “secreted less IFN; also recorded: lower levels”. Further, in experiment [2] (splenocytes from PGPC-treated vs vehicle-treated EAE mice), the “TNF secretion upon PLP139-151 stimulation” value is listed as “lower levels”.
